Measured values: patent US20260062422A1 (Halda Therapeutics OpCo, Inc., priority 2022, published 2026)

Assays:
Format in all cases: cell-based
[1] = Cellular growth inhibition, T-Rex 293 SC cells with doxycycline (progesterone receptor isoform B induced), Example 47; conditions: progesterone receptor isoform B induced with 10 ng/mL doxycycline, 72 hours, CellTiter-Glo 2.0, Table 14 (Example 47)
Experimental: (§1) The following types of cells were prepared for this experiment: (i) a T-Rex 293 cell line having increased expression of progesterone receptor isoform B protein due to exposure to doxycycline and (ii) a T-Rex 293 cell line lacking increased expression of progesterone receptor isoform B protein. Ability of the test compounds to inhibit proliferation of the foregoing cell types was evaluated according to the procedures set forth below.
(§2) The doxycycline-inducible progesterone receptor isoform B protein expressing cell line was established using the following protocol: T-Rex 293 cells were purchased from Invitrogen (Cat #R71007) and transfected using Lipofectamine 2000 with the wild-type progesterone receptor B protein sequence cloned into the pcDNA4/TO vector. Transfected cells were selected using 400 μg/mL Zeocin (Invitrogen Cat #R25001). Following selection, single clones were raised and maintained in Dulbecco's Modified Eagle Medium (DMEM) supplemented with 10% w/w Tetracycline-free fetal bovine serum (FBS) and 250 μg/mL Zeocin. Clones were analyzed for expression of progesterone receptor isoform B protein in the presence and absence of 10 ng/mL doxycycline (Sigma Cat #D9891), and a single doxycycline-inducible clone (hereinafter “SC”) was selected for use in downstream assays.
(§3) The SC cells were seeded on poly-D-lysine coated, black clear-bottom 384-well plates at 2500/well, in 25 μL Phenol Red Free Dulbecco's Modified Eagle Medium (DMEM) supplemented with 10% w/w charcoal-dextran treated fetal bovine serum (FBS) and 1% w/w pen-strep, with or without 10 ng/mL doxycycline. Pen-Strep is a commercially available mixture of penicillin G and streptomycin, which is used in mammalian cell culture media to prevent bacterial contamination. Phenol Red Free Dulbecco's Modified Eagle Medium (DMEM) supplemented with 10% w/w charcoal-dextran treated fetal bovine serum (FBS) and 1% w/w pen-strep, with or without 10 ng/mL doxycycline is herein referred to as Treatment Medium. Following seeding of cells in the plates, the plates were spun at 300×g for 30 seconds, then equilibrated to room temperature for 30 minutes, and then deposited in a humidified tissue culture incubator maintained at 37° C. with 5% CO2.
(§4) At 24 hours after seeding of the cells, dilutions of test compound were prepared in DMSO and dissolved in Treatment Medium, to achieve a final DMSO concentration of 0.5% w/w, thereby providing the Test Compound Solution. A 25 μL aliquot of the Test Compound Solution was added to cells in the well plates. An equal volume of a solution containing DMSO and Treatment Medium was used as a negative control. Following treatment of cells with Test Compound Solution or said equal volume of a solution containing DMSO and Treatment Medium, the plates were spun at 300×g for 30 seconds, and then left in an incubator for 72 hours.
(§5) At the end of the treatment duration, cell viability was quantified with CellTiter-Glo 2.0 reagent (Promega Cat #G9243). For this purpose, plates were equilibrated to room temperature for 30 minutes, and then 25 μL of CellTiter-Glo 2.0 reagent was added to cells in the plate wells. Plates were then agitated on a shaker for two minutes at 500 rpm and subsequently incubated at room temperature for 10 minutes. Following incubation, the plates were spun at 3000×g for 30 seconds, then sealed with an optical adhesive cover, and luminescence readings were measured with an EnVision Plate Reader (Perkin Elmer).
(§6) Data was normalized using zero luminescence for baseline. A four-parameter non-linear regression curve fit was applied to dose-response data in GraphPad Prism data analysis software to determine the half-maximal growth inhibitory concentration (GI50) for each test compound.

[2] = tested on: T-Rex 293 cell line SC cells having increased expression of progesterone receptor isoform B protein due to exposure to doxycycline; assay: as above; conditions: progesterone receptor isoform B induced with 10 ng/mL doxycycline, 72 hours, CellTiter-Glo 2.0, Table 14 (Example 47)
Experimental: as §1, §2, §3, §4, §5, §6

LnCaP95 Parental cells = assay: Cellular growth inhibition assay for LnCaP95 Parental cells, CellTiter-Glo; conditions: CellTiterGlo assay, 6 days
Experimental: (§7) T47D LnCap95 Parental and T47D LnCap95 AR-FL KO cells were seeded in 25 μL growth media in poly-d lysine coated black clear-bottom 384-well plates at 2500 cells/well with Phenol Red Free RPMI containing 10% charcoal stripped serum and 1% pen strep. Following seeding, plates were spun at 300×g for 30 seconds, then equilibrated to room temperature for 30 minutes, and moved into the incubator. 24 hours after seeding, compounds were titrated in 100% DMSO and diluted in growth medium. 25 μL of the compound/medium mixture was added to cells, bringing the total volume in each well to 50 μL. DMSO was used as a negative control.
After treatment, plates were spun at 300×g for 30 seconds, then cultured at 37° C. with 5% CO2 for 6 days in a humidified tissue culture incubator. On Day 6 of treatment, cell viability was quantified with CellTiter-Glo 2.0 reagent (Promega). Plates were equilibrated to room temperature for 30 minutes, then 25 μL of CellTiter-Glo 2.0 reagent was added to cells, bringing the total volume in each well to 75 μL. After reagent was added, plates were spun at 300×g for 30 seconds then mixed on a shaker for two minutes at 500 rpm and then incubated in dark at room temperature for 10 minutes. Following incubation, plates were spun at 300×g for 30 seconds, sealed with an optical adhesive cover, and luminescence readings were measured with an EnVision Plate Reader. […]

[3] = tested on: 22RV1 cells overexpressing FL-AR (22RV1 Parental(FL-AR^hi)); assay: 22RV1 apoptosis assay (Caspase-Glo 3/7), cells overexpressing FL-AR; conditions: Caspase 3/7 Glo assay
Experimental: as §7, with “22RV1” for “T47D LnCap95”, “22RV1/AR” for “T47D LnCap95 AR-FL KO”, “5000” for “2500”, “PenStrep.” for “pen strep.”
After treatment, plates were spun at 300×g for 30 seconds, then cultured at 37° C. with 5% CO2 for 24 or 48 hours in a humidified tissue culture incubator. After 24 or 48 hours of treatment, Caspase 3/7 activity was quantified with Caspase-Glo 3/7 reagent (Promega). Plates were equilibrated to room temperature for 30 minutes, then 25 μL of Caspase-Glo 3/7 reagent was added to cells, bringing the total volume in each well to 75 μL. After reagent was added, plates were spun at 300×g for 30 seconds then mixed on a shaker for two minutes at 500 rpm and then incubated in the dark at room temperature for one hour. Following incubation, plates were spun at 300×g for 30 seconds, sealed with an optical adhesive cover, and luminescence reads were measured with an EnVision Plate Reader. […]

SMILES | GI50 [1] [nM] | other results
Cc1sc2c(c1C)C(c1ccc(Cl)cc1)=N[C@@H](CC(=O)NCCOCCOCCOCCOCCN(C)c1ncc(C(=O)N[C@H]3C(C)(C)[C@H](Oc4ccc(C#N)c(Cl)c4)C3(C)C)cn1)c1nnc(C)n1-2 [Compound I-3, N-((1r,3r)-3-(3-chloro-4-cyanophenoxy)-2,2,4,4-tetramethylcyclobutyl)-2-((1-((S)-4-(4-chlorophenyl)-2,3,9-trimethyl-6H-thieno[3,2-f][1,2,4]triazolo[4,3-a][1,4]diazepin-6-yl)-2-oxo-6,9,12,15-tetraoxa-3-azaheptadecan-17-yl)(methyl)amino)pyrimidine-5-carboxamide] | < 500 | 
Cc1sc2c(c1C)C(c1ccc(Cl)cc1)=N[C@H](CC(=O)NCCOCCOCCOCCOCCOC1CCN(c3ncc(C(=O)N[C@H]4C(C)(C)[C@H](Oc5ccc(C#N)c(Cl)c5)C4(C)C)cn3)CC1)c1nnc(C)n1-2 [Compound I-14] | < 500 | 
Cc1sc2c(c1C)C(c1ccc(Cl)cc1)=N[C@@H](CC(=O)NCCCCCOC1CCN(c3ncc(C(=O)N[C@H]4C(C)(C)[C@H](Oc5ccc(C#N)c(Cl)c5)C4(C)C)cn3)CC1)c1nnc(C)n1-2 [Compound I-22, N-((1r,3r)-3-(3-chloro-4-cyanophenoxy)-2,2,4,4-tetramethylcyclobutyl)-2-(4-((5-(2-((S)-4-(4-chlorophenyl)-2,3,9-trimethyl-6H-thieno[3,2-A][1,2,4]triazolo[4,3-a][1,4]diazepin-6-yl)acetamido)pentyl)oxy)piperidin-1-yl)pyrimidine-5-carboxamide] |  | GI50 [2]: > 3000 nM
Cc1sc2c(c1C)C(c1ccc(Cl)cc1)=N[C@H](CC(=O)NCCOCCOCCOCCOC1CCN(c3ncc(C(=O)N[C@H]4C(C)(C)[C@H](Oc5ccc(C#N)c(Cl)c5)C4(C)C)cn3)CC1)c1nnc(C)n1-2 [Compound I-13] | < 500 | 
Cc1sc2c(c1C)C(c1ccc(Cl)cc1)=N[C@@H](CC(=O)NCCOC1CCN(c3ncc(C(=O)N[C@H]4C(C)(C)[C@H](Oc5ccc(C#N)c(Cl)c5)C4(C)C)cn3)CC1)c1nnc(C)n1-2 [Compound I-6] | < 500 | 
Cc1sc2c(c1C)C(c1ccc(Cl)cc1)=N[C@@H](CC(=O)NCCOCCOCCOCCOCCOC1CCN(c3ncc(C(=O)N[C@H]4C(C)(C)[C@H](Oc5ccc(C#N)c(Cl)c5)C4(C)C)cn3)CC1)c1nnc(C)n1-2 [Compound I-8] | < 500 | 
Cc1sc2c(c1C)C(c1ccc(OC3CC4(CCN(c5ncc(C(=O)N[C@H]6C(C)(C)[C@H](Oc7ccc(C#N)c(Cl)c7)C6(C)C)cn5)CC4)C3)cc1)=N[C@@H](Cc1ncco1)c1nnc(C)n1-2 [Compound I-49, N-[3-(3-chloro-4-cyano-phenoxy)-2,2,4,4-tetramethyl-cyclobutyl]-2-[2-[4-[(9S)-4,5,13-trimethyl-9-(oxazol-2-ylmethyl)-3-thia-1,8,11,12-tetrazatricyclo[8.3.0.02,6]trideca-2(6),4,7,10,12-pentaen-7-yl]phenoxy]-7-azaspiro[3.5]nonan-7-yl]pyrimidine-5-carboxamide] | < 500 | activity in parental LnCaP95 cells compared to AR knockout cells (LnCaP95 Parental cells; parental vs LnCaP95 AR-FL KO cells): enhanced activity in parental LnCaP95 cells; GI50 (LnCaP95 Parental cells; LNCaP-95, 144 h, parental LnCaP95 cells): 37 nM; apoptosis in 22RV1 FL-AR^hi cells as compared to parental 22RV1 FL-AR^low cells [3]: highly apoptotic; EC50 ([3]; Homo sapiens, 22RV1 cells overexpressing FL-AR (FL-AR^hi), 24 or 48 hours): 126 nM
Cc1sc2c(c1C)C(c1ccc(Cl)cc1)=N[C@H](CC(=O)NCCOCCOCCOCCOCCN(C)c1ncc(C(=O)N[C@H]3C(C)(C)[C@H](Oc4ccc(C#N)c(Cl)c4)C3(C)C)cn1)c1nnc(C)n1-2 [Compound I-19] | 500 to 1500 | 
Cc1sc2c(c1C)C(c1ccc(Cl)cc1)=N[C@@H](CC(=O)NCCOCCOCCOCCOCCOCCOCCN(C)c1ncc(C(=O)N[C@H]3C(C)(C)[C@H](Oc4ccc(C#N)c(Cl)c4)C3(C)C)cn1)c1nnc(C)n1-2 [Compound I-4] | < 500 | 
Cc1sc2c(c1C)C(c1ccc(Cl)cc1)=N[C@@H](CC(=O)NCCOCCOCCOCC1CCN(c3ncc(C(=O)N[C@H]4C(C)(C)[C@H](Oc5ccc(C#N)c(Cl)c5)C4(C)C)cn3)CC1)c1nnc(C)n1-2 [Compound I-17] | 500 to 1500 | 
Cc1sc2c(c1C)C(c1ccc(Cl)cc1)=N[C@@H](CC(=O)NCCOCCOCCOCCOC1CCN(c3ncc(C(=O)N[C@H]4C(C)(C)[C@H](Oc5ccc(C#N)c(Cl)c5)C4(C)C)cn3)CC1)c1nnc(C)n1-2 [Compound I-11] | < 500 | 
